In data set [1] the test system is A549 cells. The format is cell-based. The note with it: MTT, 20 and 200 µM peptide in PBS, 2 h, 5 × 10^4 cells/well; data not shown. On the procedure:
(§1) An MTT cell viability assay was used for evaluating LpqG peptides’ cytotoxic effect; it involved placing 5 × 10^4 cells/well for 2 h with 20 and 200 µM each peptide in PBS, using the afore-mentioned incubation conditions. Triton X-100 was used as cytotoxicity control; 10 µL MTT were then added for 12 h. The resulting formazan crystals were dissolved in SDS and absorbance read at 570 nm.

Data set [2] relates to U937 cells. The format is cell-based. The settings on record: MTT, 20 and 200 µM peptide in PBS, 2 h, 5 × 10^4 cells/well; data not shown. As for the experimental part: as §1

Where no end group is shown, it is not given here.

On to SGCDSHNSGSLGADPRQVTVY [compound 16661], for which, in data set [1], the “cytotoxicity on A549 cells” value turned out to be 4%. Also, the “cytotoxic effect on U937 cells” value in data set [2] is on record as “without having a cytotoxic effect”.

Source of the values: PMC6017924, “Mycobacterium tuberculosis H37Rv LpqG Protein Peptides Can Inhibit Mycobacterial Entry through Specific Interactions” (Molecules : A Journal of Synthetic Chemistry and Natural …, 2018).
